From PubChem BioAssay (NCI)
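Values below derive from 48-hour exposures of cells grown in 96-well plates, with endpoints linearly interpolated between the two concentrations bracketing the appropriate inhibition level. Abbreviation: GI50, concentration required for 50% inhibition of growth. TGI: concentration producing complete growth inhibition.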

Legend:
Experiment in all cases: NCI-60 cell line screen, 48 h
[1] = test system: SW-620 colon
[2] = test system: OVCAR-4 ovarian
[3] = test system: SN12C renal
[4] = test system: COLO 205 colon
[5] = test system: MDA-MB-435
[6] = test system: UACC-62 melanoma
[7] = test system: SF-268 CNS
[8] = test system: A549 NSCLC
[9] = test system: SK-MEL-28 melanoma
[10] = test system: HCC-2998 colon
[11] = test system: MDA-N
[12] = test system: NCI-H226 lung
[13] = test system: SF-295 CNS
[14] = test system: SR leukemia
[15] = test system: RPMI-8226 leukemia
[16] = test system: UO-31 renal
[17] = test system: MCF7 breast
[18] = test system: IGROV1 ovarian
[19] = test system: M14 melanoma
[20] = test system: NCI/ADR-RES ovarian
[21] = test system: MDA-MB-231 breast
[22] = test system: NCI-H23 lung
[23] = test system: EKVX NSCLC
[24] = test system: SK-MEL-2 melanoma
[25] = test system: SK-OV-3 ovarian
[26] = test system: HS 578T breast
[27] = test system: K-562 leukemia
[28] = test system: HCT-15 colon
[29] = test system: HOP-92 NSCLC
[30] = test system: CCRF-CEM leukemia
[31] = test system: MOLT-4 leukemia
[32] = test system: BT-549 breast
[33] = test system: PC-3 prostate
[34] = test system: HOP-62 NSCLC
[35] = test system: HL-60(TB) leukemia
[36] = test system: RXF 393 renal
[37] = test system: SNB-19 CNS
[38] = test system: NCI-H460 lung
[39] = test system: SF-539 CNS
[40] = test system: T-47D breast
[41] = test system: MALME-3M melanoma
[42] = test system: KM12 colon
[43] = test system: UACC-257 melanoma
[44] = test system: 786-0 renal
[45] = test system: CAKI-1 renal
[46] = test system: HT29 colon
[47] = test system: U251 CNS
[48] = test system: HCT-116 colon
[49] = test system: TK-10 renal
[50] = test system: OVCAR-8 ovarian
[51] = test system: SK-MEL-5 melanoma
[52] = test system: OVCAR-3 ovarian
[53] = test system: LOX IMVI melanoma
[54] = test system: DU-145 prostate
[55] = test system: A498 renal
[56] = test system: ACHN renal
[57] = test system: NCI-H522 lung
[58] = test system: SNB-75 CNS
[59] = test system: OVCAR-5 ovarian
[60] = test system: KM20L2 colon

## CC(C)C(OC(=O)c1cc(NC(=S)c2ccccc2)ccc1Cl)C(C)C
[1]
  TGI: > 89.6 µM
[2]
  TGI: > 100 µM
[3]
  TGI: 39.6 µM
[4]
  TGI: 41.7 µM
[5]
  TGI: > 100 µM
[6]
  TGI: 38.9 µM
[7]
  TGI: 82 µM
[8]
  TGI: > 94.7 µM
[9]
  TGI: > 90 µM
[10]
  TGI: > 53.1 µM
[11]
  TGI: 39.8 µM
[12]
  TGI: 45.5 µM
[13]
  TGI: > 84.7 µM
[14]
  TGI: > 60.8 µM
[15]
  TGI: > 73.5 µM
[16]
  TGI: 54.6 µM
[17]
  TGI: > 100 µM
[18]
  TGI: > 100 µM
[19]
  TGI: > 84.8 µM
[20]
  TGI: > 100 µM
[21]
  TGI: 57.4 µM
[22]
  TGI: 35.7 µM
[23]
  TGI: > 86.4 µM
[24]
  TGI: 52.6 µM
[25]
  TGI: 99.4 µM
[26]
  TGI: 69 µM
[27]
  TGI: > 100 µM
[28]
  TGI: 74.4 µM
[29]
  TGI: 34.4 µM
[30]
  TGI: > 96.7 µM
[31]
  TGI: > 64.2 µM
[32]
  TGI: 91.1 µM
[33]
  TGI: 38.4 µM
[34]
  TGI: > 100 µM
[35]
  TGI: 55.8 µM
[36]
  TGI: 37.1 µM
[37]
  TGI: > 100 µM
[38]
  TGI: 47.4 µM
[39]
  TGI: 65.5 µM
[40]
  TGI: 29.5 µM
[41]
  TGI: > 57.8 µM
[42]
  TGI: 39.6 µM
[43]
  TGI: 58.5 µM
[44]
  TGI: 50.8 µM
[45]
  TGI: 51.9 µM
[46]
  TGI: 34.4 µM
[47]
  TGI: > 61.5 µM
[48]
  TGI: 40.8 µM
[49]
  TGI: > 86.3 µM
[50]
  TGI: > 100 µM
[51]
  TGI: 29.9 µM
[52]
  TGI: 52.5 µM
[53]
  TGI: 70.4 µM
[54]
  TGI: > 100 µM
[55]
  TGI: 58.4 µM
[56]
  TGI: 65.7 µM
[57]
  TGI: 29.4 µM
[58]
  TGI: 59.1 µM
[59]
  TGI: > 100 µM

## O=C(N/N=C/c1cc(Br)cc(Br)c1[O-])c1ccccc1O.O=C(N/N=C/c1cc(Br)cc(Br)c1[O-])c1ccccc1O.[Cl-].[Fe+3]
[1]
  TGI: 14 µM
[2]
  TGI: 8.24 µM
[6]
  TGI: 7.99 µM
[7]
  TGI: 33.1 µM
[8]
  TGI: 36.8 µM
[10]
  TGI: 5.65 µM
[12]
  TGI: 4.97 µM
[13]
  TGI: 5.98 µM
[14]
  TGI: 5.68 µM
[16]
  TGI: 20.7 µM
[18]
  TGI: 30.6 µM
[19]
  TGI: 9.96 µM
[23]
  TGI: 27.8 µM
[24]
  TGI: 5.43 µM
[25]
  TGI: 7.22 µM
[27]
  GI50: 2.59 µM
  TGI: 5.63 µM
[28]
  TGI: 3.84 µM
[29]
  TGI: 6.12 µM
[30]
  GI50: 38.6 µM
  TGI: > 100 µM
[31]
  TGI: > 100 µM
[34]
  TGI: 5.48 µM
[35]
  TGI: 6.54 µM
[36]
  TGI: 6.39 µM
[37]
  TGI: 21.3 µM
[38]
  TGI: 17.7 µM
[60]
  TGI: 13.9 µM
[39]
  TGI: 5.35 µM
[42]
  TGI: 81.6 µM
[43]
  TGI: 29.3 µM
[45]
  TGI: 18.2 µM
[46]
  TGI: 13.2 µM
[47]
  TGI: 4.91 µM
[48]
  TGI: 10.2 µM
[49]
  TGI: 20 µM
[50]
  TGI: 33.4 µM
[51]
  TGI: 12.3 µM
[52]
  TGI: 12.8 µM
[53]
  TGI: 15.5 µM
[56]
  TGI: 18.3 µM
[57]
  TGI: 4.56 µM
[59]
  TGI: 7.61 µM
